Tests used:
[1] = AUC (0 to infinity) in rat at 5 mg/kg, po; format: ADME, organism-based; parameters: time infinity, dose 5 mg/kg, route oral; conditions: plasma
[2] = Half life in rat at 1 mg/kg, iv; format: ADME, organism-based; parameters: dose 1 mg/kg, route intravenous; conditions: in vivo
[3] = Clearance in rat at 1 mg/kg, iv; format: ADME, organism-based; parameters: dose 1 mg/kg, route intravenous; conditions: in vivo
[4] = AUC (0 to infinity) in rat at 1 mg/kg, iv; format: ADME, organism-based; parameters: time infinity, dose 1 mg/kg, route intravenous; conditions: plasma
[5] = Oral bioavailability in rat at 5 mg/kg; format: ADME, organism-based; conditions: in vivo
[6] = Drug level in tumor of human GTL16 cells xenografted in mouse assessed as tumor regression at 100 mg/kg, po qd for 5 days 2 to 10 hrs after last dose; format: ADME, organism-based, Neoplasm; parameters: dose 100 mg/kg, route oral; conditions: in vivo
[7] = Drug level in tumor of human GTL16 cells xenografted in mouse assessed as tumor regression at 100 mg/kg, po qd for 5 days 10 hrs after last dose; format: ADME, organism-based, Neoplasm; parameters: dose 100 mg/kg, route oral; conditions: read-out: Drug uptake

SMILES: CNC(=O)c1cccc(F)c1Nc1nc(Nc2ccc3c(c2)OCCCN3CCN2CCCC2)ncc1Cl
- AUC(0-inf) [1]: < 100 ng·h/mL

SMILES: CCOC(=O)N1CCCOc2cc(Nc3ncc(Cl)c(Nc4c(F)cccc4C(=O)NC)n3)ccc21
- AUC(0-inf) [1]: 913 ng·h/mL
- half-life [2]: 72 min
- clearance [3]: 15.3 mL/min/kg
- AUC(0-inf) [4]: 1220 ng·h/mL
- bioavailability [5]: 15%
- Drug uptake [6]: 125 ng/g

SMILES: CCN1CCCOc2cc(Nc3ncc(Cl)c(Nc4c(F)cccc4C(=O)NC)n3)ccc21
- AUC(0-inf) [1]: < 100 ng·h/mL

SMILES: CNC(=O)c1cccc(F)c1Nc1nc(Nc2ccc3c(c2)OCCCN3)ncc1Cl
- half-life [2]: 18 min
- clearance [3]: 34 mL/min/kg
- concentration at 10 h [7]: > 200 ng/g
